Values joined by “and” are separate entries in the source; they are usually repeats but may differ in a detail not shown here. Equal entries are not always repeated. Where two headings read alike, the source gives them in different places. Starred links: 1 amine or outer side, 2 acyl side, 3 side chain; linkers in the order of their positions; H or OH if unused. Non-standard residues stand in square brackets, D forms with d. Residues, ends and D or L forms follow the SMILES beside them. *: point of attachment. Dolaproine = CO[C@@H]([C@@H]1CCCN1)[C@@H](C)C(=O)O; Hexanoyl(6-maleimido) = O=C1C=CC(=O)N1CCCCCC(=O)*; Dil = CC[C@H](C)[C@H](NC)[C@@H](CC(=O)O)OC; PABC = O=C(OCc1ccc(N[*:1])cc1)[*:2]; Doe = c1ccc(C[C@H](N*)c2nccs2)cc1; X1 = C[C@@H](N*)[C@@H](O)c1ccccc1; Cit = NC(=O)NCCC[C@H](N)C(=O)O; NMeV = CN[C@H](C(=O)O)C(C)C
Legend:
Oval-Citar-3-MSLN cells = assay: Cytotoxic activity (CCK-8) in Oval-Citar-3 cells with high expression of MSLN; conditions: for IC50: read-out: cytotoxicity IC50
Method: Oval-Citar-3-MSLN cells in good growth state were added to a 96-well cell culture plates (5×10^4 cells/mL. 100 μL/well), and incubated overnight at 37° C. in a CO2 incubator. […] After dilution, they were added to 96 plates (100 μL/well), and a blank group (equal volume of medium without drug) and three control groups were set, and incubation was carried out in a CO2 constant temperature incubator at 37° C. for 72 hours. A medium (without FBS) that contained 10 μL of CCK-8 at a dose of 100 μL/well was added, incubated at 37° C. for 2 to 4 hours in a CO2 incubator, and the OD values at 450 nm were read with a microplate reader. The inhibition rate was calculated by the following formula: IR %=(ODblank−ODdrug)×100/ODblank.

[1] = system: Oval-Citar-3 human ovarian cancer bearing mouse model with high expression of MSLN; assay: Anti-tumor experiment of RC88-Py-MAA-Val-Cit-PAB-MMAE, dose groups and controls, in Oval-Citar-3-MSLN tumor-bearing nude mice (Example 6); assay type: in vivo
Method: Oval-Citar-3-MSLN cells (2×10^6) in normal growth state were subcutaneously inoculated in nude mice (Changzhou Cavans Laboratory Animal Co., Ltd., certificate number: 201611240, license number: SCXK (Su) 2011-0003), and the animals were randomized after the tumor volume grew to approximately 100-400 mm^3. […] 3 times in total (PTX was administered twice a week, 6 times in total), and the negative control group was administrated with the equal amount of physiological saline at the same time.

[2] = OVal-CitAR3-MSLN, 72 hours, CCK-8, N = 3
[3] = 10 mg/kg twice a week, 6 times in total, after 21 days of administration

| Structure (SMILES) | IC50 (Oval-Citar-3-MSLN cells; Homo sapiens, 72 h) | Inhibition rate, % (maximum inhibition rate) (Oval-Citar-3-MSLN cells; [2]) | T/C [1, 3] | tumors completely eliminated (CR) [1, 3] | tumor volume and RTV versus the control (saline) group ([1]; 10 mg/kg twice a week, 6 times in total, after 21 days, P<0.05) | cytotoxicity IC50 (Oval-Citar-3-MSLN cells; [2]) | IC50 (Oval-Citar-3-MSLN cells; [2]) | difference from the control (saline) group ([1]; 0.06 mg/kg, once a week, 3 times in total, P>0.05) |
| --- | --- | --- | --- | --- | --- | --- | --- | --- |
| CC(=O)O[C@H]1C(=O)[C@@]2(C)[C@H]([C@H](OC(=O)c3ccccc3)[C@]3(O)C[C@H](OC(=O)[C@H](O)[C@@H](NC(=O)c4ccccc4)c4ccccc4)C(C)=C1C3(C)C)[C@]1(OC(C)=O)CO[C@@H]1C[C@@H]2O [PTX, Paclitaxel] | 0.00109 µg/mL and 1.27 nM | 92.8 ± 1.5% | < 40% | tumors were completely eliminated (CR) in two tumor-bearing mice | statistically different |  |  |  |
| CC[C@H](C)[C@@H]([C@@H](CC(=O)N1CCC[C@H]1[C@H](OC)[C@@H](C)C(=O)N[C@@H](Cc1ccccc1)c1nccs1)OC)N(C)C(=O)[C@@H](NC(=O)[C@@H](NC)C(C)C)C(C)C [MMAD, monomethyl auristatin D] (H-[NMeV]V[Dil][Dolaproine]-Doe) |  | 98.1 ± 2.4% |  |  |  | 0.1169 ± 0.0074 ng/mL | 0.152 ± 0.01 nM |  |
| CC[C@H](C)[C@@H]([C@@H](CC(=O)N1CCC[C@H]1[C@H](OC)[C@@H](C)C(=O)N[C@H](C)[C@@H](O)c1ccccc1)OC)N(C)C(=O)[C@@H](NC(=O)[C@@H](NC)C(C)C)C(C)C [MMAE, monomethyl auristatin E] (H-[NMeV]V[Dil][Dolaproine]-X1) |  | 96.9 ± 0.7% |  |  |  | 0.3199 ± 0.0284 ng/mL | 0.446 ± 0.0395 nM | no significant difference |
| CC[C@H](C)[C@@H]([C@@H](CC(=O)N1CCC[C@H]1[C@H](OC)[C@@H](C)C(=O)N[C@H](C)[C@@H](O)c1ccccc1)OC)N(C)C(=O)[C@@H](NC(=O)[C@H](C(C)C)N(C)C(=O)OCc1ccc(NC(=O)[C@H](CCCNC(N)=O)NC(=O)[C@@H](NC(=O)CCCCCN2C(=O)C=CC2=O)C(C)C)cc1)C(C)C [Mc-Val-Cit-PAB-MMAE] ({Hexanoyl(6-maleimido)}-V[Cit][PABC][NMeV]V[Dil][Dolaproine]-X1) |  | 94.5 ± 0.8% |  |  |  | ~663.4 ng/mL |  |  |

Reference: patent publication US12171840B2, “Anti-mesothelin antibody and antibody drug conjugate thereof” (Remegen, Ltd., priority 2018, dated 2024)
